Measured values taken from US9475819B2, “Substituted 7-azabicycles and their use as orexin receptor modulators” (Janssen Pharmaceutica NV, priority 2013, dated 2016).

Experiments:
human orexin 2 receptor = human orexin 2 receptor (Homo sapiens (Human), UniProt O43614); test: Human orexin 2 receptor radioligand binding ([3H]-EMPA competition, HEK293 cells); details: [3H]-EMPA competition binding, read-out: hOX2 Ki
human orexin 1 receptor = human orexin 1 receptor (Homo sapiens (Human), UniProt O43613); test: Human orexin 1 receptor radioligand binding ([3H]-SB674042 competition, CHO cells); details: [3H]-SB674042 competition binding, read-out: hOX1 Ki
Chain of human orexin 1 receptor (O43613 whole entry): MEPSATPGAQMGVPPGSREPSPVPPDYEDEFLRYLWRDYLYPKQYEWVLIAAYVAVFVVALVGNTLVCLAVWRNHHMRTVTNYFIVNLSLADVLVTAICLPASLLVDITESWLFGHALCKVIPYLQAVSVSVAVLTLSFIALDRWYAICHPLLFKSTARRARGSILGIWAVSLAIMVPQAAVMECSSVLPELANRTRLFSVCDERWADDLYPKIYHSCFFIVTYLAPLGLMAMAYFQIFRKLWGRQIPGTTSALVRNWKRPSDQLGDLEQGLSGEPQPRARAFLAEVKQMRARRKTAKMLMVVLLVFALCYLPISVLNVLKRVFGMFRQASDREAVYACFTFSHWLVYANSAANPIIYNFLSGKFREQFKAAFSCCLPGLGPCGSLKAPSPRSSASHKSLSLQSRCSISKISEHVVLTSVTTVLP

Chain of human orexin 2 receptor (O43614 whole entry): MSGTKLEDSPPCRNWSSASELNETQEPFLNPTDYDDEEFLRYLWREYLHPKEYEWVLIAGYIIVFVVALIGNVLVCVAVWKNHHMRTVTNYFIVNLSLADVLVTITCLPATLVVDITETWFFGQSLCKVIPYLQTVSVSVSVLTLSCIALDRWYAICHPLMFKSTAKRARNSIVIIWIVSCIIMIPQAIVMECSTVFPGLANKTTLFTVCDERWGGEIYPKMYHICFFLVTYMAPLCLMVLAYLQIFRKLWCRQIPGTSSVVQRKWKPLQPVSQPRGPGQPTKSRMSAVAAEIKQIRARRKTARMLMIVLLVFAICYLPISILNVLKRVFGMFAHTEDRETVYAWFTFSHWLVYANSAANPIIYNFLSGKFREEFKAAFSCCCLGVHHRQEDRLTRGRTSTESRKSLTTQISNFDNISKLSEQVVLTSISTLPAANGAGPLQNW

Row | SMILES | Ki (human orexin 2 receptor) | Ki (human orexin 1 receptor)
1 | Cc1ccc(-n2nccn2)c(C(=O)N2C3CCC2C(Nc2ccc(C(F)(F)F)cn2)C3)n1 (racemic) [Example 187, (±)-(6-methyl-3-(2H-1,2,3-triazol-2-yl)pyridin-2-yl)(2-((5-(trifluoromethyl)pyridin-2-yl)amino)-7-azabicyclo[2.2.1]heptan-7-yl)methanone] | 620 nM | 48 nM
2 | Cc1ccc(-n2nccn2)c(C(=O)N2[C@H]3CC[C@@H]2[C@@H](COc2ccc(F)cn2)C3)c1 (single isomer, unassigned) [Example 10B] | 5150 nM | 
